Measured values: PMC2909763 (Chemistry & biology, 2009)
pIC50: −log10 of the molar value. “Also recorded” adds a separate entry of the source. One block for each compound: values may come before it.

Experiments:
[1] = test system: class I HDACs; details: ref Chou et al., 2008; cited from earlier work
[2] = test system: FXN mRNA in FRDA lymphoblasts; details: FRDA cells in culture; ref Herman et al., 2006; cited from earlier work
[3] = test system: FXN mRNA in primary lymphocytes from FRDA patients; assay: FXN mRNA by qRT-PCR in primary FRDA patient lymphocytes; type: cell-based, human; details: for up-regulation of FXN mRNA: normalized to GAPDH mRNA, relative to DMSO
[4] = test system: FXN mRNA in FRDA lymphoblasts; assay: FXN mRNA by qRT-PCR in FRDA lymphoblast cell line; type: cell-based, human
[5] = target: T1, HDAC1 (Homo sapiens, UniProt Q13547); assay: IC50 with recombinant HDAC1; type: biochemical
[6] = test system: tubulin acetylation (class II HDAC6) in FRDA lymphoblasts; assay: Tubulin acetylation by western blot in FRDA lymphoblasts; type: cell-based, human
[7] = target: T2, HDAC7 (Homo sapiens, UniProt Q8WUI4); assay: IC50 with recombinant HDAC7; type: biochemical
T2 sequence (Q8WUI4 1-952): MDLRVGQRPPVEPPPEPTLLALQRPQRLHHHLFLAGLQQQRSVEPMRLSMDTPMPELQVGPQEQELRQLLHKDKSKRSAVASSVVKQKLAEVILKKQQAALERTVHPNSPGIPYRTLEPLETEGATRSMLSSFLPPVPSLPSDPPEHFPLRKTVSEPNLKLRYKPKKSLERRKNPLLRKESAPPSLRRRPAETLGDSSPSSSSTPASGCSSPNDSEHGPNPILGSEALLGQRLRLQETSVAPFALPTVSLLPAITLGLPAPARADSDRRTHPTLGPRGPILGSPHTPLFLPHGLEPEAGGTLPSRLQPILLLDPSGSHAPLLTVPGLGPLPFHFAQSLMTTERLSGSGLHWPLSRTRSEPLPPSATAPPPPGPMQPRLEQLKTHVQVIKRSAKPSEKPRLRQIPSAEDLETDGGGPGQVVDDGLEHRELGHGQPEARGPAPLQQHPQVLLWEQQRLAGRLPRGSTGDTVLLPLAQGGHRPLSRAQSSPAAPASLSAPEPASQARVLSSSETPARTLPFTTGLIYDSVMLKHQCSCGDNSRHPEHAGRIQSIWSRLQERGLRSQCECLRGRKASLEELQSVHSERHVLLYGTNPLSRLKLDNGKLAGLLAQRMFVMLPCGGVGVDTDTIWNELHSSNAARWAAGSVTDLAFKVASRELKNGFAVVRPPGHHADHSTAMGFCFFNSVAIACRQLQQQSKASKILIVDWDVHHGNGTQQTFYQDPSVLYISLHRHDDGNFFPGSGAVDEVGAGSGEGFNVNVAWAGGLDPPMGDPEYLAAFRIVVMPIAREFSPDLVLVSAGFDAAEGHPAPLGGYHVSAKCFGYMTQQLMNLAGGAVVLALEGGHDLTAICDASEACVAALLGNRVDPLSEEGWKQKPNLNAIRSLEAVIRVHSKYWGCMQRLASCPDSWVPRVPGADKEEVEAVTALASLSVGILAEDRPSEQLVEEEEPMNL

[8] = test system: acetylated histone H3 in FRDA lymphoblast cell line; assay: Histone H3 acetylation by western blot in FRDA lymphoblasts; type: cell-based, human; details: for hyperacetylation of histone H3 after inhibitor removal: 3 or 106 at 10 μM, SAHA at 2 μM, 24 h, then washed, 0 to 7 h
[9] = test system: frataxin protein in FRDA lymphoblasts; assay: Frataxin protein by western blot in FRDA lymphoblasts; type: cell-based, human; details: 106 or 3 at 10 μM, SAHA at 2 μM, 48 h, normalized to GAPDH
[10] = test system: class II HDACs; details: read-out: IC50s for class II enzymes; ref Chou et al., 2008; cited from earlier work
[11] = test system: recombinant HDAC8; details: ref Chou et al., 2008; cited from earlier work
[12] = test system: p21^WAF1 mRNA in HEK293 cells; assay: p21WAF1 mRNA levels in HEK293 cells; type: cell-based; details: data not shown
[13] = test system: Sirt1; details: read-out: IC50 Sirt1; reported; ref Napper et al., 2005; cited from earlier work
[14] = test system: FXN mRNA in patient fibroblasts; assay: FXN mRNA in FRDA patient fibroblasts; type: cell-based, human; details: concentrations up to 10 μM, not shown
[15] = test system: Sirt2; details: read-out: IC50 Sirt2; reported; ref Napper et al., 2005; cited from earlier work
[16] = target: HDAC3/NcoR2 (Homo sapiens, UniProt O15379); assay: Ki and kinetics from enzyme progression curves, HDAC3; type: biochemical; details: fit of Kobs versus inhibitor concentration
[17] = target: T1, HDAC1; assay: Ki and kinetics from enzyme progression curves, HDAC1; type: biochemical
[18] = target: recombinant HDAC2 (Homo sapiens, UniProt Q92769); assay: Inhibition of recombinant HDAC2; type: biochemical; details: data not shown
[19] = test system: HDAC; details: read-out: IC50 as HDAC inhibitor; ref Herman et al., 2006; cited from earlier work
[20] = recombinant HDAC1 vs HDAC3/NcoR2

T1 sequence (Q13547 whole entry): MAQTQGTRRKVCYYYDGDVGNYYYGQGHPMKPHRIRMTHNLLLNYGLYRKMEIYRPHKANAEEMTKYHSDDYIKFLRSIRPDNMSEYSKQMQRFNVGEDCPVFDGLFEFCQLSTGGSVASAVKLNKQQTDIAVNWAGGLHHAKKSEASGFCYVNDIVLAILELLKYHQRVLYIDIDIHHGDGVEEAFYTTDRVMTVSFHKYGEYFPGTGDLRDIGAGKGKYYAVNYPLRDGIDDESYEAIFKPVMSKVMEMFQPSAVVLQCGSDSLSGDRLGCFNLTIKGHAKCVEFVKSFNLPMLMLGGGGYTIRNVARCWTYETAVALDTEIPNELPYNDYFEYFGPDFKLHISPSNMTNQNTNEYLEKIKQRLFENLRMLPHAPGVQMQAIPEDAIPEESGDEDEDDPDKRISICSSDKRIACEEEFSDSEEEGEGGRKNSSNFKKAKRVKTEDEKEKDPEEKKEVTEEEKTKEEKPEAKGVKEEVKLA
Chain of recombinant HDAC2 (Q92769 whole entry): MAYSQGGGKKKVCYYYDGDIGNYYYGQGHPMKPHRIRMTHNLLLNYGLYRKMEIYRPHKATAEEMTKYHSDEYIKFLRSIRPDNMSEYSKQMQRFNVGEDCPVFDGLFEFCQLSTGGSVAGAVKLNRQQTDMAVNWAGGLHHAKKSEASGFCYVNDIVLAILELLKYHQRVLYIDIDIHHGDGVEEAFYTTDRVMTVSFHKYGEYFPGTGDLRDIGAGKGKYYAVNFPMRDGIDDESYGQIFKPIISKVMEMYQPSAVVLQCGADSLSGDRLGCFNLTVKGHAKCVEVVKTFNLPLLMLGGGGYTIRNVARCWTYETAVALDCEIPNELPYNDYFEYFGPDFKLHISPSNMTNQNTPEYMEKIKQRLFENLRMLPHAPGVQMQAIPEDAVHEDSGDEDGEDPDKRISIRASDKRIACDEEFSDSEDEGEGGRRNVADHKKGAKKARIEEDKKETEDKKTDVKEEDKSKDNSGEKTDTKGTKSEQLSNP
Chain of HDAC3/NcoR2 (O15379 whole entry): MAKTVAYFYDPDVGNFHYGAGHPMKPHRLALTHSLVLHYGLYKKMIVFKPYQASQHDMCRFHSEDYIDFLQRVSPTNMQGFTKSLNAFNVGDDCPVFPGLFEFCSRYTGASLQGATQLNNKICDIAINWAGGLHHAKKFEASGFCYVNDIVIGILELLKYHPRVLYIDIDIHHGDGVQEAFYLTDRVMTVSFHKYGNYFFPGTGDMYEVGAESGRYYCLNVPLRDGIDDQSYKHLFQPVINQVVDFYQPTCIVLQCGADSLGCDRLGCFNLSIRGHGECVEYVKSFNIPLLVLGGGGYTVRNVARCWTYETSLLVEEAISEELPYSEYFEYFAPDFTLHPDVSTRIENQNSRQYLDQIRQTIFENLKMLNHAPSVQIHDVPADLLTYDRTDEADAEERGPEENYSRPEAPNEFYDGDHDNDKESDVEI
Chain of HDAC3/NcoR2 (Q9Y618 395-489 partner limits assumed): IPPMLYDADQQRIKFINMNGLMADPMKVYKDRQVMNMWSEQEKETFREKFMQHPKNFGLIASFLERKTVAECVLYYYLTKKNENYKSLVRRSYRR

SMILES: CC(/C=C/C(=O)NO)=C\[C@@H](C)C(=O)c1ccc(N(C)C)cc1 [TSA, trichostatin A, reference compound]
- inhibition kinetics with class I HDACs [1]: fast-on/fast-off
- activation of FXN gene expression [2]: neither TSA nor SAHA is an activator

- pIC50 [5]: 4.52
- pIC50 [7]: 5.40
- preference for a class II HDAC (HDAC7) over a class I HDAC (HDAC1) ([7]; from IC50 values): 7.5 fold
SMILES: CC(C)(C)OC(=O)Nc1ccc(NC(=O)CCCC(=O)C(F)(F)F)cc1 [compound 4, tert-butyl 4-(6,6,6-trifluoro-5-oxohexanamido)phenylcarbamate]
- up-regulation of FXN transcription ([3]; concentrations up to 40 μM): failed to show up-regulation
- effect on levels of FXN mRNA ([4]; concentrations up to 10 μM for 24 h): no positive effect
- tubulin acetylation ([6]; 1 μM in culture medium for 24 h): potent inducer
- tubulin acetylation ([6]; FRDA lymphoblasts): highly active

SMILES: Cc1ccc(NC(=O)CCCCCC(=O)Nc2ccccc2N)cc1 [compound 106]
- up-regulation of FXN mRNA levels ([3]; 48 h): highly active
- up-regulation of FXN mRNA ([3]; 48 h): 3 – 4 fold
- inhibition kinetics with class I HDACs [1]: slow-on/slow-off
- hyperacetylation of histone H3 after inhibitor removal [8]: decreased only slightly
- effect on frataxin protein levels [9]: positive effect
- pIC50 [10]: < 3.74
- activity against HDAC8 [11]: only weak inhibitory activity; also recorded: only weakly active
- tubulin acetylation ([6]; FRDA lymphoblasts): Neither 106 nor 3 caused tubulin acetylation

SMILES: CCCC(CCC)C(=O)O [valproic acid]
- activation of FXN gene expression [2]: none

SMILES: O=C(CCCCCCC(=O)Nc1ccccc1)NO [SAHA, suberoylanilide hydroxamic acid, reference compound]
- p21^WAF1 mRNA levels [12]: increased
- effect on frataxin protein levels [9]: decreased
- activation of FXN gene expression [2]: neither TSA nor SAHA is an activator

SMILES: NC(=O)C1CCCc2c1[nH]c1ccc(Cl)cc21 (stereo not shown) [6-chloro-2,3,4,9-tetrahydro-1H-carbazole-1-carboxamide]
- effect on FXN mRNA levels ([3]; concentrations up to 10 μM, 48 h): no effect
- effect on FXN mRNA levels ([4]; concentrations up to 10 μM, not shown): no effect
- effect on FXN mRNA levels [14]: no effect

- inhibition mechanism, HDAC3/NcoR2 [16]: simple slow-on/slow-off mechanism
- preference for HDAC1 over HDAC3 comparing IC50 values [5, 20]: ~ 75 fold
- inhibition mechanism, HDAC1 ([17]; fit of Kobs versus inhibitor concentration): slow-on/slow-off
- preference for HDAC1 over HDAC3 from Ki measurements [17, 20]: ~ 350 fold
- activity against recombinant HDAC2 [18]: similarly active
SMILES: Nc1ccc(-c2ccccc2)cc1NC(=O)CCCCCC(=O)Nc1ccccc1 [compound 3, N^1-(4-aminobiphenyl-3-yl)-N^7-phenylheptanediamide]
- up-regulation of FXN mRNA levels ([3]; 48 h): fails to reproducibly up-regulate
- up-regulation of FXN mRNA ([3]; 48 h): ≤ 1.7 fold
- p21^WAF1 mRNA levels [12]: increased
- hyperacetylation of histone H3 after inhibitor removal [8]: decreased only slightly
- HDAC inhibition in FRDA cells (histone acetylation titration) ([8]; increasing concentrations, western blotting): comparably active
- effect on frataxin protein levels [9]: without significant effect
- tubulin acetylation ([6]; FRDA lymphoblasts): Neither 106 nor 3 caused tubulin acetylation

SMILES: O=C(CCCCCC(=O)Nc1ccccc1)Nc1ccccc1 [5b, N^1-phenyl-N^7-phenylheptanediamide]
- pIC50 [19]: ~3.70
- activation of FXN gene expression [2]: fails to activate
